Assay results published in patent US20170333532A1, “ADP'ASE-ENHANCED APYRASE THERAPY FOR WOUNDS, MICROBIAL INFECTION, SEPSIS, AND HETEROTOPIC OSSIFICATION” (APT THERAPEUTICS, INC, priority 2014, published 2017).

Tests used:
[1] = system: P. aeruginosa strain AU7443, mucoid; test: Killing of P. aeruginosa AU7443, mucoid by colistin with Apyrase Agent, CFU count; format: cell-based; conditions: colistin at less than 20 μg/ml, with Apyrase Agent 2 U/ml or alone
Experimental: In this Example (and in subsequent Examples), the colistin is colistin sulfate salt, catalog number C4461 from Sigma-Aldrich (St. Louis, Mo.) and the apyrase is catalog number M0393L from New England BioLabs Inc. (Ipswich, Mass.).
P. aeruginosa strain AU7443, mucoid is grown in the presence of combinations of 0 and 2 U/ml of Apyrase Agent and approximately 0 to 20 μg/ml of colistin. After incubation, the numbers of viable cells are determined by counting the colony forming units (CFU) on the plate (data provided as CFU/ml). Apyrase Agent improves the efficiency of killing P. aeruginosa strain AU7443, mucoid by colistin. Apyrase Agent increases the effectiveness of colistin at less than 20 μg/ml such that less than 10 to 100 CFU/ml are detected relative to greater than 10^4 to 10^5 in the presence of colistin alone at the same concentrations.

A. baumannii DMCI = test: Mouse burn wound infection model, A. baumannii DMCI, six groups; format: in vivo; conditions: C57BL/6 mice, 24 hours after burn, colistin 4 μg/ml, treatment immediately after inoculation
Source text: An established mouse wound model is used for these tests. Female pathogen-free C57BL/6 mice (Harlan, Indianapolis, Ind.), 12 weeks old, weighing ˜20-25 grams are used in all experiments. The skin over the lumbrosacral and back region is clipped using a 35-W model 5-55E electrical clipper (Oyster-Golden A-S, Head no. 80, blade size 40) by using the method described by Ipaktchi et al. with slight modification. Two hundred microliters of 0.9% saline suspension of A. baumannii DMCI (I×10^6 cells/ml), which is a highly colistin resistant clinical strain, is used for wound infection experiments. Viable bacterial numbers are determined 24 hours after burn. The Student t-test is used for statistical analysis.
Experiments are carried out in six groups (I) a control group, which contains neither apyrase nor colistin; (2) potato apyrase group, which contains potato apyrase (I U/ml); (3) colistin group, which contains colistin (4 μg/ml); (4) potato apyrase and colistin group, (5) Apyrase Agent group, (6) Apyrase Agent and colistin group.
The treatment is applied immediately after inoculation. After 24 hours, the mice are given lethal IP injections of pentobarbital (150 mg/kg) and skin samples are collected using a scalpel and scissors.

Substance: colistin sulfate salt
- numbers of viable cells (CFU) [1]: 10^4 to 10^5 CFU/ml
- viable bacteria number recovered from burn sites (A. baumannii DMCI): highest viable bacteria number
